# Assay results published in US9364545B2, “Thermosensitive injectable hydrogel for drug delivery” (Taipei Medical University, priority 2014, dated 2016).
# How the values were obtained:
# C26 tumor = assay: Tumor inhibition study, intratumoral injection; type: in vivo, Balb/c male mice
# Protocol: (§1) The suspension of […] (1.0×10^6 cells/100 μl) was injected subcutaneously in the right flank of Balb/c male mice using 26 G needles. After 7 days tumor size reached 100-300 mm^3. The […] were randomly divided into three groups (n=3) and received following treatments. Group 1 mice were treated with an intratumoral injection of sterile PBS as control group; Group 2, mice received an intratumoral injection of Dox-HA hydrogel; Group 3, mice received an intratumoral injection of free Dox solution (4 mg/kg in 0.1 mL). The mice were weighed and tumor size was measured using a capliper for 10 days post intratumoral injection. The tumor volume (V) was calculated with the following formula V=[length×(width)^2]/2
# On day 10, the mice were sacrificed and the tumor masses harvested, weighted, and photographed. Tumor inhibition rate was calculated using the equation. Tumor inhibition rate (%)=(Wc−Wt)/Wc where Wc is the weight of the tumor in the control group and Wt is the weight of the tumor in the test formulation group (L. Chen, X. Sha, X. Jiang, Y. Chen, Q. Ren, X. Fang, Pluronic P105/F127 mixed micelles for the delivery of docetaxel against Taxol-resistant non-small cell lung cancer: optimization and in vitro, in vivo evaluation, International journal of nanomedicine, 8 (2013) 73-84).
# The in vivo antitumor efficacy of DHMF-15 hydrogel formulation was evaluated in the C26 tumor-bearing mice model. Mice were randomized into […] when the tumor size reached 100 mm^3. Three groups of mice received intratumoral injection of PBS, DHMF-15 hydrogel, free Dox solution, DMF-15 hydrogel, and DF-15 hydrogel respectively. […] PBS treatments had no substantial effect on C26 tumor growth, and the tumor volumes increased rapidly. After administration for 10 days, the average tumor volume in the PBS treated mice had reached over 1000 mm^3. […] Ranked from high to low inhibition efficacy, the formulations are ordered as follows: DHMF-15, free Dox solution, DMF-15, DF-15, PBS.
# [1] = system: HT29 human colon cancer cells; assay: Cell viability, MTT assay; type: cell-based; settings: 24 h incubation
# Protocol: (§2) C26 colon carcinoma cells and HT29 human colon cancer cells were cultured with RPMI-1640 with 10% fetal bovine serum and 10% penicillinstreptomycin. MCF-7 human breast cancer cells MEM were cultured with Eagle's MEM with 10% fetal bovine serum and 10% penicillinstreptomycin. Cells were seeded at a density of 5×10^4 cells per well in 24-well plates. After 24 hours of incubation at 37° C. with 5% CO2, the medium was replaced with new medium containing Dox formulation. After 24 hours incubation, cell survival was then measured using tetrazolium salt MTT assay. One hundred microliters of MTT (6 mg/mL) was added to each well for 4 hours. The medium was removed after […] incubation and then 200 μl DMSO was added to dissolve any purple formazan crystal formed. Remove the solvent was removed and dried in an oven at 50° C. for 2 hours. Cell viability was measured by ELISA reader and absorbance set at 520 nm.
# [2] = system: C26 colon carcinoma cells; assay: Cell viability, MTT assay; type: cell-based; settings: 24 h incubation
# Protocol: as §2
# [3] = system: MCF-7 human breast cancer cells; assay: Cell viability, MTT assay; type: cell-based; settings: MCF7 cells, 24 h incubation
# Protocol: as §2
# [4] = Body weight and death as indication of systemic toxicity; type: in vivo, Balb/c male mice; settings: after intratumoral injection, during the experiment
# Protocol: as §1
# We also monitored change in body weight during the experiment as an indication of systemic toxicity.
smiles,measurement,setting,value
"COc1cccc2c1C(=O)c1c(O)c3c(c(O)c1C2=O)C[C@@](O)(C(=O)CO)C[C@@H]3O[C@H]1C[C@H](N)[C@H](O)[C@H](C)O1.Cl [free Dox solution, Doxorubicin Hydrochloride]",Tumor size as % of that in the PBS control group,"C26 tumor; after 10 days, intratumoral injection",42.45%
same,Tumor weight compared to the control group,C26 tumor; day 10,significantly reduced
same,Tumor inhibition rate,"C26 tumor; excised tumor weight on day 10, (Wc−Wt)/Wc",80.65%
same,Cytotoxicity (cell viability),[1],potent cytotoxicity
same,Cytotoxicity (cell viability),[2],potent cytotoxicity
same,Cytotoxicity (cell viability),[3],potent cytotoxicity
same,Toxicity-induced death and body weight loss,[4],neither toxicity-induced death nor serious body weight loss
